Legend:
Experiment in all cases: Weeding effect in post-emergence stage
Type in all cases: in vivo
Conditions in all cases: active ingredient 2000 g/ha, 3 weeks after application, fresh weight control rate
Abutilon theophrasti = tested on: Abutilon theophrasti
Excerpt: (§1) The activity level criteria for plant damage (i.e., growth control rate) are as follows:
(§2) The above growth control rates are fresh weight control rates.
(§3) Experiment on weeding effect in post-emergence stage: monocotyledonous and dicotyledonous weed seeds and major crop seeds (wheat, corn, rice, soybean, cotton, oilseed rape, millet, sorghum) were placed in plastic pots filled with soil, then covered with 0.5-2 cm of soil, allowed to grow in a good greenhouse environment. After 2 weeks of sowing, the test plants were treated in the 2-3 leaf stage. The tested compounds of the present invention were respectively dissolved in acetone at the dosage of 2000, 1000, 500, 250, 125 g/ha, then added with Tween 80 and 1.5 liter/ha of emulsifiable concentrate of methyl oleate as synergist, diluted with a certain amount of water to obtain a solution with a certain concentration, and sprayed with a spray tower onto the plants. After the application, the plants were cultured for 3 weeks in the greenhouse, and then the experimental results were listed in Table 1.

[1] = tested on: Amaranthus retroflexus L.
Excerpt: as §1, §2, §3

Chenopodium album = tested on: Chenopodium album
Excerpt: as §1, §2, §3

Descurainia sophia = tested on: Descurainia sophia
Excerpt: as §1, §2, §3

Cn1nnnc1NC(=O)c1ccnc(-c2ccc(S(C)(=O)=O)cc2)c1Cl [Compound 1-45]
Weeding effect, activity level (growth control rate), Abutilon theophrasti (Abutilon theophrasti): 5 (Level 5: growth control rate is above 85%) | Weeding effect, activity level (growth control rate), Amaranthus retroflexus L. [1]: 5 (Level 5: growth control rate is above 85%) | Weeding effect, activity level (growth control rate), Chenopodium album (Chenopodium album): 5 (Level 5: growth control rate is above 85%) | Weeding effect, activity level (growth control rate), Descurainia sophia (Descurainia sophia): 5 (Level 5: growth control rate is above 85%)

Cn1nnnc1NC(=O)c1ccnc(-c2ccc(S(=O)(=O)N3CCOCC3)cc2)c1Cl [Compound 1-46]
Weeding effect, activity level (growth control rate), Abutilon theophrasti (Abutilon theophrasti): 5 (Level 5: growth control rate is above 85%) | Weeding effect, activity level (growth control rate), Amaranthus retroflexus L. [1]: 5 (Level 5: growth control rate is above 85%) | Weeding effect, activity level (growth control rate), Chenopodium album (Chenopodium album): 5 (Level 5: growth control rate is above 85%) | Weeding effect, activity level (growth control rate), Descurainia sophia (Descurainia sophia): 5 (Level 5: growth control rate is above 85%)

CC(=O)Nc1ccc(-c2nccc(C(=O)Nc3nnnn3C)c2Cl)cc1 [Compound 1-47]
Weeding effect, activity level (growth control rate), Abutilon theophrasti (Abutilon theophrasti): 5 (Level 5: growth control rate is above 85%) | Weeding effect, activity level (growth control rate), Amaranthus retroflexus L. [1]: 5 (Level 5: growth control rate is above 85%) | Weeding effect, activity level (growth control rate), Chenopodium album (Chenopodium album): 5 (Level 5: growth control rate is above 85%) | Weeding effect, activity level (growth control rate), Descurainia sophia (Descurainia sophia): 5 (Level 5: growth control rate is above 85%)

C=CC(=O)Nc1cccc(-c2nccc(C(=O)Nc3nnnn3C)c2Cl)c1 [Compound 1-48]
Weeding effect, activity level (growth control rate), Abutilon theophrasti (Abutilon theophrasti): 5 (Level 5: growth control rate is above 85%) | Weeding effect, activity level (growth control rate), Amaranthus retroflexus L. [1]: 5 (Level 5: growth control rate is above 85%) | Weeding effect, activity level (growth control rate), Chenopodium album (Chenopodium album): 5 (Level 5: growth control rate is above 85%) | Weeding effect, activity level (growth control rate), Descurainia sophia (Descurainia sophia): 5 (Level 5: growth control rate is above 85%)

Cn1nnnc1NC(=O)c1ccnc(-c2cccc(C#N)c2)c1Cl [Compound 1-49]
Weeding effect, activity level (growth control rate), Abutilon theophrasti (Abutilon theophrasti): 5 (Level 5: growth control rate is above 85%) | Weeding effect, activity level (growth control rate), Amaranthus retroflexus L. [1]: 5 (Level 5: growth control rate is above 85%) | Weeding effect, activity level (growth control rate), Chenopodium album (Chenopodium album): 5 (Level 5: growth control rate is above 85%) | Weeding effect, activity level (growth control rate), Descurainia sophia (Descurainia sophia): 5 (Level 5: growth control rate is above 85%)

Cn1nnnc1NC(=O)c1ccnc(-c2ccc(C#N)cc2)c1Cl [Compound 1-50]
Weeding effect, activity level (growth control rate), Abutilon theophrasti (Abutilon theophrasti): 5 (Level 5: growth control rate is above 85%) | Weeding effect, activity level (growth control rate), Amaranthus retroflexus L. [1]: 5 (Level 5: growth control rate is above 85%) | Weeding effect, activity level (growth control rate), Chenopodium album (Chenopodium album): 5 (Level 5: growth control rate is above 85%) | Weeding effect, activity level (growth control rate), Descurainia sophia (Descurainia sophia): 5 (Level 5: growth control rate is above 85%)

Cn1nnnc1NC(=O)c1ccnc(-c2ccc(OC3CCCCO3)cc2)c1Cl (centres unmarked) [Compound 1-51]
Weeding effect, activity level (growth control rate), Abutilon theophrasti (Abutilon theophrasti): 5 (Level 5: growth control rate is above 85%) | Weeding effect, activity level (growth control rate), Amaranthus retroflexus L. [1]: 5 (Level 5: growth control rate is above 85%) | Weeding effect, activity level (growth control rate), Chenopodium album (Chenopodium album): 5 (Level 5: growth control rate is above 85%) | Weeding effect, activity level (growth control rate), Descurainia sophia (Descurainia sophia): 5 (Level 5: growth control rate is above 85%)

Cn1nnnc1NC(=O)c1ccnc(-c2ccccc2-c2ccccc2)c1Cl [Compound 1-52]
Weeding effect, activity level (growth control rate), Abutilon theophrasti (Abutilon theophrasti): 5 (Level 5: growth control rate is above 85%) | Weeding effect, activity level (growth control rate), Amaranthus retroflexus L. [1]: 5 (Level 5: growth control rate is above 85%) | Weeding effect, activity level (growth control rate), Chenopodium album (Chenopodium album): 5 (Level 5: growth control rate is above 85%) | Weeding effect, activity level (growth control rate), Descurainia sophia (Descurainia sophia): 5 (Level 5: growth control rate is above 85%)

Cn1nnnc1NC(=O)c1ccnc(-c2ccc(-c3ccccc3)cc2)c1Cl [Compound 1-53]
Weeding effect, activity level (growth control rate), Abutilon theophrasti (Abutilon theophrasti): 5 (Level 5: growth control rate is above 85%) | Weeding effect, activity level (growth control rate), Amaranthus retroflexus L. [1]: 5 (Level 5: growth control rate is above 85%) | Weeding effect, activity level (growth control rate), Chenopodium album (Chenopodium album): 5 (Level 5: growth control rate is above 85%) | Weeding effect, activity level (growth control rate), Descurainia sophia (Descurainia sophia): 5 (Level 5: growth control rate is above 85%)

CCc1ccc(-c2ccc(-c3nccc(C(=O)Nc4nnnn4C)c3Cl)cc2)cc1 [Compound 1-54]
Weeding effect, activity level (growth control rate), Abutilon theophrasti (Abutilon theophrasti): 5 (Level 5: growth control rate is above 85%) | Weeding effect, activity level (growth control rate), Amaranthus retroflexus L. [1]: 5 (Level 5: growth control rate is above 85%) | Weeding effect, activity level (growth control rate), Chenopodium album (Chenopodium album): 5 (Level 5: growth control rate is above 85%) | Weeding effect, activity level (growth control rate), Descurainia sophia (Descurainia sophia): 5 (Level 5: growth control rate is above 85%)

Cn1nnnc1NC(=O)c1ccnc(-c2cccc(OCc3ccccc3)c2)c1Cl [Compound 1-56]
Weeding effect, activity level (growth control rate), Abutilon theophrasti (Abutilon theophrasti): 5 (Level 5: growth control rate is above 85%) | Weeding effect, activity level (growth control rate), Amaranthus retroflexus L. [1]: 5 (Level 5: growth control rate is above 85%) | Weeding effect, activity level (growth control rate), Chenopodium album (Chenopodium album): 5 (Level 5: growth control rate is above 85%) | Weeding effect, activity level (growth control rate), Descurainia sophia (Descurainia sophia): 5 (Level 5: growth control rate is above 85%)

Cn1nnnc1NC(=O)c1ccnc(-c2ccccc2Oc2ccccc2)c1Cl [Compound 1-57]
Weeding effect, activity level (growth control rate), Abutilon theophrasti (Abutilon theophrasti): 5 (Level 5: growth control rate is above 85%) | Weeding effect, activity level (growth control rate), Amaranthus retroflexus L. [1]: 5 (Level 5: growth control rate is above 85%) | Weeding effect, activity level (growth control rate), Chenopodium album (Chenopodium album): 5 (Level 5: growth control rate is above 85%) | Weeding effect, activity level (growth control rate), Descurainia sophia (Descurainia sophia): 5 (Level 5: growth control rate is above 85%)

Cc1cccc(C)c1-c1nccc(C(=O)Nc2nnnn2C)c1Cl [Compound 1-58]
Weeding effect, activity level (growth control rate), Abutilon theophrasti (Abutilon theophrasti): 5 (Level 5: growth control rate is above 85%) | Weeding effect, activity level (growth control rate), Amaranthus retroflexus L. [1]: 5 (Level 5: growth control rate is above 85%) | Weeding effect, activity level (growth control rate), Chenopodium album (Chenopodium album): 5 (Level 5: growth control rate is above 85%) | Weeding effect, activity level (growth control rate), Descurainia sophia (Descurainia sophia): 5 (Level 5: growth control rate is above 85%)

Cc1ccc(-c2nccc(C(=O)Nc3nnnn3C)c2Cl)c(C)c1 [Compound 1-59]
Weeding effect, activity level (growth control rate), Abutilon theophrasti (Abutilon theophrasti): 5 (Level 5: growth control rate is above 85%) | Weeding effect, activity level (growth control rate), Amaranthus retroflexus L. [1]: 5 (Level 5: growth control rate is above 85%) | Weeding effect, activity level (growth control rate), Chenopodium album (Chenopodium album): 5 (Level 5: growth control rate is above 85%) | Weeding effect, activity level (growth control rate), Descurainia sophia (Descurainia sophia): 5 (Level 5: growth control rate is above 85%)

Cc1cc(C)cc(-c2nccc(C(=O)Nc3nnnn3C)c2Cl)c1 [Compound 1-60]
Weeding effect, activity level (growth control rate), Abutilon theophrasti (Abutilon theophrasti): 5 (Level 5: growth control rate is above 85%) | Weeding effect, activity level (growth control rate), Amaranthus retroflexus L. [1]: 5 (Level 5: growth control rate is above 85%) | Weeding effect, activity level (growth control rate), Chenopodium album (Chenopodium album): 5 (Level 5: growth control rate is above 85%) | Weeding effect, activity level (growth control rate), Descurainia sophia (Descurainia sophia): 5 (Level 5: growth control rate is above 85%)

Cn1nnnc1NC(=O)c1ccnc(-c2cc(C(C)(C)C)cc(C(C)(C)C)c2)c1Cl [Compound 1-61]
Weeding effect, activity level (growth control rate), Abutilon theophrasti (Abutilon theophrasti): 5 (Level 5: growth control rate is above 85%) | Weeding effect, activity level (growth control rate), Amaranthus retroflexus L. [1]: 5 (Level 5: growth control rate is above 85%) | Weeding effect, activity level (growth control rate), Chenopodium album (Chenopodium album): 5 (Level 5: growth control rate is above 85%) | Weeding effect, activity level (growth control rate), Descurainia sophia (Descurainia sophia): 5 (Level 5: growth control rate is above 85%)

Cn1nnnc1NC(=O)c1ccnc(-c2cccc(F)c2F)c1Cl [Compound 1-62]
Weeding effect, activity level (growth control rate), Abutilon theophrasti (Abutilon theophrasti): 5 (Level 5: growth control rate is above 85%) | Weeding effect, activity level (growth control rate), Amaranthus retroflexus L. [1]: 5 (Level 5: growth control rate is above 85%) | Weeding effect, activity level (growth control rate), Chenopodium album (Chenopodium album): 5 (Level 5: growth control rate is above 85%) | Weeding effect, activity level (growth control rate), Descurainia sophia (Descurainia sophia): 5 (Level 5: growth control rate is above 85%)

Cn1nnnc1NC(=O)c1ccnc(-c2cc(F)ccc2F)c1Cl [Compound 1-63]
Weeding effect, activity level (growth control rate), Abutilon theophrasti (Abutilon theophrasti): 5 (Level 5: growth control rate is above 85%) | Weeding effect, activity level (growth control rate), Amaranthus retroflexus L. [1]: 5 (Level 5: growth control rate is above 85%) | Weeding effect, activity level (growth control rate), Chenopodium album (Chenopodium album): 5 (Level 5: growth control rate is above 85%) | Weeding effect, activity level (growth control rate), Descurainia sophia (Descurainia sophia): 5 (Level 5: growth control rate is above 85%)

Cn1nnnc1NC(=O)c1ccnc(-c2ccc(F)cc2F)c1Cl [Compound 1-64]
Weeding effect, activity level (growth control rate), Abutilon theophrasti (Abutilon theophrasti): 5 (Level 5: growth control rate is above 85%) | Weeding effect, activity level (growth control rate), Amaranthus retroflexus L. [1]: 5 (Level 5: growth control rate is above 85%) | Weeding effect, activity level (growth control rate), Chenopodium album (Chenopodium album): 5 (Level 5: growth control rate is above 85%) | Weeding effect, activity level (growth control rate), Descurainia sophia (Descurainia sophia): 5 (Level 5: growth control rate is above 85%)

Cn1nnnc1NC(=O)c1ccnc(-c2cc(F)cc(F)c2)c1Cl [Compound 1-65]
Weeding effect, activity level (growth control rate), Abutilon theophrasti (Abutilon theophrasti): 5 (Level 5: growth control rate is above 85%) | Weeding effect, activity level (growth control rate), Amaranthus retroflexus L. [1]: 5 (Level 5: growth control rate is above 85%) | Weeding effect, activity level (growth control rate), Chenopodium album (Chenopodium album): 5 (Level 5: growth control rate is above 85%) | Weeding effect, activity level (growth control rate), Descurainia sophia (Descurainia sophia): 5 (Level 5: growth control rate is above 85%)

From US12497365B2, “4-pyridinyl formamide compound or derivative thereof, preparation method therefor, herbicidal composition and use thereof” (Qingdao Kingagroot Chemical Compound Co., Ltd., priority 2019, dated 2025)
